The values that follow come from article PMC6149922, “2-Substituted Aniline as a Simple Scaffold for LuxR-Regulated QS Modulation” (Molecules : A Journal of Synthetic Chemistry and Natural …, 2017).

Structures are written as SMILES.

This experiment addresses T1, LuxR (Aliivibrio fischeri, UniProt P12746).
T1 sequence (P12746 1-250): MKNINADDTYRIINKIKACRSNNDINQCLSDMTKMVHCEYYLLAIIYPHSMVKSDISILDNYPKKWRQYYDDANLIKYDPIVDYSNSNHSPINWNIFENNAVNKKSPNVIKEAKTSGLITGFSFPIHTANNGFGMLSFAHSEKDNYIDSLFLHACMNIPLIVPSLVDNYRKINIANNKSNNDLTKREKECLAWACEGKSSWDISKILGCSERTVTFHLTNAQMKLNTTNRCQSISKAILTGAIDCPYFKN
The experiment in a line: antagonism of […] 3-oxo-C6-HSL-induced bioluminescence, recombinant E. coli NM522 pSB401 LuxR biosensor. The format is cell-based.
By IC50 is commonly meant the midpoint of a concentration-inhibition curve. On to `CCCC(=O)Nc1ccccc1[N+](=O)[O-]` [compound 1, N-(2-nitrophenyl)butanamide], for which the IC50 amounted to 58 µM.

Turning to `CCCCCC(=O)Nc1ccccc1[N+](=O)[O-]` [compound 2, N-(2-nitrophenyl)hexanamide], the IC50 worked out at 94 µM.

As to `CCCCCC(=O)Nc1ccccc1` [compound 12, N-Phenylhexanamide], the IC50 stood at 79 µM.
